Values of other authors as cited in US20240238224A1, “COMPOSITION FOR LOCAL ANAESTHESIA AND USES THEREOF” (priority 2023, published 2024).

Test system: test teeth

SMILES	effectiveness compared with tetracaine (reported in U.S. Pat. No. 8,580,282 B2, cols. 7, 13, 14)	effectiveness for inducing pulpal anesthesia, 4% versus 3% tetracaine (non-injected formulation with vasoconstrictor, reported in U.S. Pat. No. 8,580,282 B2)
CCCCN1CCCCC1C(=O)Nc1c(C)cccc1C (centres unmarked) [bupivacaine, 1-butyl-N-(2,6-dimethylphenyl)piperidine-2-carboxamide]	not as effective as tetracaine	–
CCCCNc1ccc(C(=O)OCCN(C)C)cc1 [tetracaine, 2-(dimethylamino)ethyl 4-(butylamino)benzoate]	–	4% tetracaine is less effective than 3%
